Results taken from the NIST ThermoML archive (doi:10.1021/je8007606).

Test: excess molar enthalpy (molar enthalpy of mixing); xn = mol fraction of the nth substance listed
Conditions: 298.15 K, 101 kPa, Liquid, Calvet calorimetry

CCCCCCCCC [nonane] + CCCO
Conditions	excess molar enthalpy [kcal/mol]
x2 = 0.0794	0.118
x2 = 0.1401	0.144
x2 = 0.2595	0.17
x2 = 0.3588	0.174
x2 = 0.441	0.173
x2 = 0.5192	0.165
x2 = 0.5829	0.154
x2 = 0.7046	0.129
x2 = 0.7517	0.117
x2 = 0.7992	0.1
x2 = 0.8361	0.086
x2 = 0.878	0.0674
x2 = 0.911	0.0521
x2 = 0.9469	0.0332
x2 = 0.9689	0.0206
